Where two headings read alike, the source gives them in different places.
Columns and labels:
[1] = tested on: secretion of TNF-α in THP-1 cells; assay: TNF-α secretion in THP-1 cells; type: cell-based; conditions: Homo sapiens, LPS 0.05 μg/ml, 17 h, read-out: IC50 with respect to the secretion of TNF-α in THP-1 cells
Description: This test is suited to test substances for their ability to inhibit secretion of TNF-α (tumour necrosis factor alpha) in THP-1 cells (human monocytic acute leukaemia cell line). TNF-α is a cytokine involved in inflammatory processes. In this test, TNF-α secretion is triggered by incubation with bacterial lipopolysaccharide (LPS).
The cells were incubated at room temperature for 15 min. 2-2.5 μl of 0.1 μg/ml LPS (Sigma, Escherichia coli 055:B5, Cat. No. L5418) dissolved in cell culture medium (final concentration 0.05 μg/ml) were then dispensed into each well. As neutral control, cells were treated with 0.05 μg/ml LPS and 1% DMSO and, as inhibitor control, with 1% DMSO only.
The amount of TNF-α was determined using the TNF-alpha HTRF Detection Kit (Cisbio, Cat. No. 62TNFPEB/C). To this end, 2 μl of the detection solution in each case, consisting of anti-TNF-α-XL665 conjugate and anti-TNF-α-cryptate conjugate dissolved in the reconstitution buffer in accordance with the manufacturer's instructions, were added for the HTRF (Homogeneous Time-Resolved Fluorescence) test. After the addition, the mixture was incubated either at room temperature for 3 h or at 4° C. overnight.
The activity of the substances is expressed as the ratio between neutral and inhibitor control in percent. The IC50 values were calculated using a 4-parameter fit.

canine IRAK4 = canine IRAK4 (Canis lupus familiaris, UniProt A0A8I3S726); assay: Canine IRAK4 kinase assay (TR-FRET); type: biochemical
Chain of canine IRAK4 (A0A8I3S726 1-460): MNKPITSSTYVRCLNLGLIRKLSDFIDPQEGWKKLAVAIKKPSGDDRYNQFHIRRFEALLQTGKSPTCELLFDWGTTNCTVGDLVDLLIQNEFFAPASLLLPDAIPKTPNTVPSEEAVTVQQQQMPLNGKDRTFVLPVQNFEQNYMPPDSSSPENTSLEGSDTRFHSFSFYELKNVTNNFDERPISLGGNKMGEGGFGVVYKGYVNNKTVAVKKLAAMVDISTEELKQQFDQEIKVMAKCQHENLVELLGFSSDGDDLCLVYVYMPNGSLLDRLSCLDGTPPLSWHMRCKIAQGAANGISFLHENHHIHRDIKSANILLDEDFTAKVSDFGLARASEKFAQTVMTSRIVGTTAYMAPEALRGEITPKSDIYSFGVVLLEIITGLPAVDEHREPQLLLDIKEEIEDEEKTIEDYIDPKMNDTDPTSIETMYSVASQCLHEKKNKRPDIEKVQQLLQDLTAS
Description: The IRAK4-inhibitory activity of the present compounds on canine IRAK4 was measured in the Irak4 TR-FRET assay (TR-FRET=Time Resolved Fluorescence Resonance Energy Transfer) described hereinafter.
Recombinant fusion protein from N-terminal HIS (Poly-histidine) and canine Irak4, expressed in baculovirus-infected insect cells (Hi5, BTI-TN-5B1-4, cell line purchased from Invitrogen, catalogue No. B855-02) and purified via affinity chromatography, was used as enzyme. The substrate used for the kinase reaction was the biotinylated peptide biotin-Ahx-[…]
50 nl of the respective solution were pipetted into a black low-volume 384-well microtitre plate (Greiner Bio-One, Frickenhausen, Germany), 2 μl of a solution of Irak4 in assay buffer [50 mM HEPES pH 7.5, 5 mM MgCl2, 1.0 mM dithiothreitol, 30 μM activated sodium orthovanadate, 0.1% (w/v) of bovine gamma-globulin (BGG) 0.04% (v/v) nonidet-P40 (Sigma)] were added and the mixture was incubated for 15 min to allow prebinding of the substances to the enzyme prior to the kinase reaction. […] The concentration of the Irak4 was adjusted to the respective activity of the enzyme and set such that the assay was carried out in the linear range. Typical concentrations were in the order of about 0.1 nM.
The resulting mixture was incubated at 22° C. for 1 h to allow formation of a complex of the biotinylated phosphorylated substrate and the detection reagents. The amount of the phosphorylated substrate was then evaluated by measuring the resonance energy transfer from europium chelate-labelled anti-mouse-IgG antibody to streptavidin-XL665. […] The IC50 values were calculated by a 4-parameter fit.

[2] = IC50 in the IRAK4 canine kinase assay, values from two experiments, 1 mM ATP
[3] = recombinant canine IRAK4 enzyme, read-out: IC50 for the inhibition of canine IRAK4

Row | Structure (SMILES) | IC50 [1] [nM] | IC50 (canine IRAK4; [2]) [nM] | IC50 (canine IRAK4; [3]) [nM]
1 | Cc1nc(C(=O)Nc2cc3cn(CCC(C)(C)O)nc3cc2C(C)(C)O)ccc1F [Example 19, 5-Fluoro-N-[2-(3-hydroxy-3-methylbutyl)-6-(2-hydroxypropan-2-yl)-2H-indazol-5-yl]-6-methylpyridine-2-carboxamide] | 100 | 6.75 | 7.6
2 | CC(C)(O)CCn1cc2cc(NC(=O)c3cccc(C(F)F)n3)c(C(C)(C)O)cc2n1 [Example 13, 6-(Difluoromethyl)-N-[2-(3-hydroxy-3-methylbutyl)-6-(2-hydroxypropan-2-yl)-2H-indazol-5-yl]pyridine-2-carboxamide] | 100 | 2.68 | 2.2

— patent publication US12459916B2, “Substituted indazoles useful for treatment and prevention of allergic and/or inflammatory diseases in animals” (Bayer Pharma Aktiengesellschaft, priority 2016, dated 2025)
